Key:
[1] = Michaelis constant was determined by native APH(3')-IIa method
[2] = Ratio of kinetic catalyst/Km was determined
[3] = Km was determined by Cyanylated APH(3')-IIa method
[4] = Kinetic catalyst(Kcat) was determined by Cyanylated APH(3')-IIa method
[5] = Kinetic constant(Kcat) was determined by native APH(3')-IIa method

SMILES: NC[C@H]1O[C@H](O[C@H]2[C@H](O)[C@@H](O)[C@H](N)C[C@@H]2N)[C@H](N)[C@@H](O)[C@@H]1O
- Km [1]: 1.2 µM
- Ratio [2]: 2.4e+07 M⁻¹ s⁻¹
- Km [3]: 7.9 µM
- Ratio [4]: 1.3e+06 M⁻¹ s⁻¹
- k cat [4]: 9.93 s⁻¹
- k cat [5]: 29 s⁻¹
